What was measured:
bulrush (Sc) = assay: Test Example 1: herbicidal effects by paddy field soil treatment; assay type: in vivo; details: 100 g of the active ingredient per 10 ares, 21st day after the application, index 0-5 of Table 47;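 further: grade of growth control; 5 = at least 90%; 4 = 70 to 90%; 3 = 50 to 70%; 2 = 30 to 50%; 1 = 10 to 30%; 0 = under 10%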
Method in brief: (§1)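 Greenhouse pot test in flooded paddy soil, dosed at 100 g a.i. per 10 ares; effect scored on day 21.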

monochoria (Mo) = assay: as above; assay type: in vivo; details: 100 g of the active ingredient per 10 ares, 21st day after the application, index 0-5 of Table 47;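 further: grade of growth control; 5 = at least 90%; 4 = 70 to 90%; 3 = 50 to 70%; 2 = 30 to 50%; 1 = 10 to 30%; 0 = under 10%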
Method in brief: as §1

barnyardgrass (Ec) [1] = assay: as above; assay type: in vivo; details: 100 g of the active ingredient per 10 ares, 21st day after the application, index 0-5 of Table 47
Method in brief: as §1

slender amaranth (Am) [2] = assay: Test Example 9: crop plant selectivity by upland field foliage treatment (wheat), herbicidal effects; assay type: in vivo; design: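 grade of growth control; 5 = at least 90%; 4 = 70 to 90%; 3 = 50 to 70%; 2 = 30 to 50%; 1 = 10 to 30%; 0 = under 10%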; details: dose 1.6 g ai/10a, 14th day after treatment
Protocol: (§2) (Test on Crop Plant Selectivity by Upland Field Foliage Treatment)
(§3) In a plastic pot (surface area: 600 cm^2) filled with sand, wheat (Tr), pale smartweed (Po), slender amaranth (Am), common lambsquarters (Ch) and China jute (Ab) were sown and cultured in a green house for 2 weeks. […] The plants were then cultured in a green house, and the evaluation of the herbicidal effects and phytotoxicity was conducted on the 14th day after the treatment in accordance with the standards as identified in Table 47.

China jute (Ab) [3] = assay: as above; assay type: in vivo; design: scale not given here; details: dose 1.6 g ai/10a, 14th day after treatment
Protocol: as §2, §3

[4] = test system: common lambsquarters (Ch); assay: as above; assay type: in vivo; design: scale not given here; details: dose 1.6 g ai/10a, 14th day after treatment
Protocol: as §2, §3

pale smartweed (Po) [5] = assay: as above; assay type: in vivo; design: scale not given here; details: dose 1.6 g ai/10a, 14th day after treatment
Protocol: as §2, §3

slender amaranth (Am) [6] = assay: Test Example 2: herbicidal effects by upland field soil treatment; assay type: in vivo; details: 100 g of the active ingredient per 10 ares;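 further: grade of growth control; 5 = at least 90%; 4 = 70 to 90%; 3 = 50 to 70%; 2 = 30 to 50%; 1 = 10 to 30%; 0 = under 10%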
Source text: (§4) (Test on Herbicidal Effects by Upland Field Soil Treatment)

rice flatsedge (Ci) [7] = assay: as above; assay type: in vivo; details: 100 g of the active ingredient per 10 ares
Source text: as §4

[8] = test system: common lambsquarters (Ch); assay: as above; assay type: in vivo; details: 100 g of the active ingredient per 10 ares
Source text: as §4

pale smartweed (Po) [9] = assay: as above; assay type: in vivo; details: 100 g of the active ingredient per 10 ares
Source text: as §4

barnyardgrass (Ec) [10] = assay: as above; assay type: in vivo; details: 100 g of the active ingredient per 10 ares
Source text: as §4

Digitaria ciliaris (Di) = assay: as above; assay type: in vivo; details: 100 g of the active ingredient per 10 ares;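 further: grade of growth control; 5 = at least 90%; 4 = 70 to 90%; 3 = 50 to 70%; 2 = 30 to 50%; 1 = 10 to 30%; 0 = under 10%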
Source text: as §4

wheat (Tr) [11] = assay: Test Example 9: crop plant selectivity by upland field foliage treatment (wheat), phytotoxicity; details: dose 1.6 g ai/10a, 14th day after treatment
Protocol: as §2, §3

slender amaranth (Am) [12] = assay: Test Example 3: herbicidal effects by upland field foliage treatment; assay type: in vivo; design: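 grade of growth control; 5 = at least 90%; 4 = 70 to 90%; 3 = 50 to 70%; 2 = 30 to 50%; 1 = 10 to 30%; 0 = under 10%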
Method in brief: (§5)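 Pot culture: sand, 120 cm^2 surface; seeds sown, soil-covered, greenhouse 2 weeks. Foliage treatment applied at that stage. Herbicidal effect rated by standard scale, day 14 post-treatment.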

rice flatsedge (Ci) [13] = assay: as above; assay type: in vivo; design: scale not given here
Method in brief: as §5

Diaitaria ciliaris (Di) = assay: as above; assay type: in vivo; design: scale not given here
Method in brief: as §5

[14] = test system: common lambsquarters (Ch); assay: as above; assay type: in vivo; design: scale not given here
Method in brief: as §5

pale smartweed (Po) [15] = assay: as above; assay type: in vivo; design: scale not given here
Method in brief: as §5

barnyardgrass (Ec) [16] = assay: as above; assay type: in vivo; design: scale not given here
Method in brief: as §5

wheat (Tr) [17] = assay: Test Example 5: crop plant selectivity by upland field soil treatment (wheat), phytotoxicity; assay type: in vivo; design: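 grade of crop injury; 5 = at least 90%; 4 = 70 to 90%; 3 = 50 to 70%; 2 = 30 to 50%; 1 = 10 to 30%; 0 = under 10%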; details: dose 6.3 g ai/10a, 21st day after application
Protocol: (§6) (Test on Crop Plant Selectivity by Upland Field Soil Treatment)
(§7) In a plastic pot (surface area: 600 cm^2) filled with sand, wheat (Tr), Diaitaria ciliaris (Di), green foxtail (Se), pale smartweed (Po), slender amaranth (Am), common lambsquarters (Ch) and China jute (Ab) were sown and covered with soil. […] The plants were then cultured in a green house, and the evaluation of the herbicidal effects and phytotoxicity was conducted on the 21st day after the application in accordance with the standards as identified in Table 47. Symbol—represents “not tested”.

slender amaranth (Am) [18] = assay: Test Example 5: crop plant selectivity by upland field soil treatment (wheat), herbicidal effects; assay type: in vivo; design: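 grade of growth control; 5 = at least 90%; 4 = 70 to 90%; 3 = 50 to 70%; 2 = 30 to 50%; 1 = 10 to 30%; 0 = under 10%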; details: dose 6.3 g ai/10a, 21st day after application
Protocol: as §6, §7

green foxtail (Se) = assay: as above; assay type: in vivo; design: scale not given here; details: dose 6.3 g ai/10a, 21st day after application
Protocol: as §6, §7

China jute (Ab) [19] = assay: as above; assay type: in vivo; design: scale not given here; details: dose 6.3 g ai/10a, 21st day after application
Protocol: as §6, §7

[20] = test system: common lambsquarters (Ch); assay: as above; assay type: in vivo; design: scale not given here; details: dose 6.3 g ai/10a, 21st day after application
Protocol: as §6, §7

pale smartweed (Po) [21] = assay: as above; assay type: in vivo; design: scale not given here; details: dose 6.3 g ai/10a, 21st day after application
Protocol: as §6, §7

[22] = 21st day after the application, index 0-5 of Table 47
[23] = 100 g of the active ingredient per 10 ares, evaluated on the 14th day after treatment
[24] = evaluated on the 21st day after application
[25] = 100 g active ingredient per 10 ares, evaluated 14th day after treatment

| Structure (SMILES) | Herbicidal effects Sc (bulrush (Sc)) | Herbicidal effects Mo (monochoria (Mo)) | Herbicidal effects Ec (barnyardgrass (Ec) [1]) | Herbicidal effects Am (slender amaranth (Am) [2]) | Herbicidal effects Ab (China jute (Ab) [3]) | Herbicidal effects Ch [4] | Herbicidal effects Po (pale smartweed (Po) [5]) | Phytotoxicity Tr (wheat (Tr) [11]) | Herbicidal effects Am (slender amaranth (Am) [12]; [23]) | Herbicidal effects Ci (rice flatsedge (Ci) [13]; [23]) | Herbicidal effects Di (Diaitaria ciliaris (Di); [23]) | Herbicidal effects Ch [14, 23] | Herbicidal effects Po (pale smartweed (Po) [15]; [23]) | Herbicidal effects Ec (barnyardgrass (Ec) [16]; [23]) | Herbicidal effects Am (slender amaranth (Am) [6]; [24]) | Herbicidal effects Ci (rice flatsedge (Ci) [7]; [24]) | Herbicidal effects Ch [8, 24] | Herbicidal effects Po (pale smartweed (Po) [9]; [24]) | Herbicidal effects Ec (barnyardgrass (Ec) [10]; [24]) | Herbicidal effects Di (Digitaria ciliaris (Di); [24]) | further results |
| --- | --- | --- | --- | --- | --- | --- | --- | --- | --- | --- | --- | --- | --- | --- | --- | --- | --- | --- | --- | --- | --- |
| CCCCCOC(=O)COc1cc(-c2ccc(C(F)(F)F)n(C)c2=O)c(F)cc1Cl [1-20] | 5 | 5 | 5 | 5 | 5 | 5 | 5 | 2 | 5 | 5 | 5 | 5 | 5 | 5 |  |  |  |  |  |  | Herbicidal effects Am (slender amaranth (Am) [6]; [22]): 5; Herbicidal effects Ci (rice flatsedge (Ci) [7]; [22]): 5; Herbicidal effects Ch [8, 22]: 5; Herbicidal effects Po (pale smartweed (Po) [9]; [22]): 5; Herbicidal effects Ec (barnyardgrass (Ec) [10]; [22]): 5; Herbicidal effects Di (Digitaria ciliaris (Di); [22]): 5 |
| CCCC(Sc1cc(-c2ccc(C(F)(F)F)n(C)c2=O)c(F)cc1Cl)C(=O)OCC (stereo not shown) [1-48] | 5 | 5 | 5 | 5 | 5 | 5 | 5 | 2 | 5 | 5 | 5 | 5 | 5 | 5 |  |  |  |  |  |  |  |
| CCCOC(=O)c1cc(-c2ccc(C(F)(F)F)n(C)c2=O)c(F)cc1Cl [1-158] | 5 | 5 | 5 | 5 | 5 | 5 | 5 | 2 | 5 | 5 | 5 | 5 | 5 | 5 |  |  |  |  |  |  | Herbicidal effects Am (slender amaranth (Am) [6]; [22]): 5; Herbicidal effects Ci (rice flatsedge (Ci) [7]; [22]): 5; Herbicidal effects Ch [8, 22]: 5; Herbicidal effects Po (pale smartweed (Po) [9]; [22]): 5; Herbicidal effects Ec (barnyardgrass (Ec) [10]; [22]): 5; Herbicidal effects Di (Digitaria ciliaris (Di); [22]): 5 |
| C#CCN1C(=O)COc2cc(F)c(-c3cc(C)c(C(F)(F)F)n(C)c3=O)cc21 [Compound 2-2] | 5 | 5 | 5 |  |  |  |  |  |  |  |  |  |  |  | 5 | 5 | 5 | 5 | 5 | 5 | Phytotoxicity Tr (wheat (Tr) [17]): 2; Herbicidal effects Am (slender amaranth (Am) [18]): 5; Herbicidal effects Se (green foxtail (Se)): 5; Herbicidal effects Ab (China jute (Ab) [19]): 5; Herbicidal effects Ch [20]: 5; Herbicidal effects Po (pale smartweed (Po) [21]): 5; Herbicidal effects Am (slender amaranth (Am) [12]; [25]): 5; Herbicidal effects Ci (rice flatsedge (Ci) [13]; [25]): 5; Herbicidal effects Di (Diaitaria ciliaris (Di); [25]): 5; Herbicidal effects Ch [14, 25]: 5; Herbicidal effects Po (pale smartweed (Po) [15]; [25]): 5; Herbicidal effects Ec (barnyardgrass (Ec) [16]; [25]): 5 |
| CCn1c(=O)sc2cc(F)c(-c3ccc(C(F)(F)F)n(C)c3=O)cc21 [Compound 3-7] | 5 | 5 | 5 | 5 | 5 | 5 | 5 | 2 |  |  |  |  |  |  | 5 | 5 | 5 | 5 | 5 | 5 | Herbicidal effects Am (slender amaranth (Am) [12]; [25]): 5; Herbicidal effects Ci (rice flatsedge (Ci) [13]; [25]): 5; Herbicidal effects Di (Diaitaria ciliaris (Di); [25]): 5; Herbicidal effects Ch [14, 25]: 5; Herbicidal effects Po (pale smartweed (Po) [15]; [25]): 5; Herbicidal effects Ec (barnyardgrass (Ec) [16]; [25]): 5 |
| CC(Br)c1cc2c(-c3ccc(C(F)(F)F)n(C)c3=O)c(F)cc(Cl)c2o1 (stereo not shown) [Compound 4-34] | 5 | 5 | 5 | 5 | 5 | 5 | 5 | 2 |  |  |  |  |  |  | 5 | 5 | 5 | 5 | 5 | 5 | Herbicidal effects Am (slender amaranth (Am) [12]; [25]): 5; Herbicidal effects Ci (rice flatsedge (Ci) [13]; [25]): 5; Herbicidal effects Di (Diaitaria ciliaris (Di); [25]): 5; Herbicidal effects Ch [14, 25]: 5; Herbicidal effects Po (pale smartweed (Po) [15]; [25]): 5; Herbicidal effects Ec (barnyardgrass (Ec) [16]; [25]): 5 |
| COC(C)c1cc2c(-c3ccc(C(F)(F)F)n(C)c3=O)c(F)cc(Cl)c2o1 (stereo not shown) [Compound 4-35] |  |  |  | 5 | 5 | 5 | 5 | 2 |  |  |  |  |  |  | 5 | 5 | 5 | 5 | 5 | 5 | Herbicidal effects Am (slender amaranth (Am) [12]; [25]): 5; Herbicidal effects Ci (rice flatsedge (Ci) [13]; [25]): 5; Herbicidal effects Di (Diaitaria ciliaris (Di); [25]): 5; Herbicidal effects Ch [14, 25]: 5; Herbicidal effects Po (pale smartweed (Po) [15]; [25]): 5; Herbicidal effects Ec (barnyardgrass (Ec) [16]; [25]): 5 |
| CCOC(C)c1cc2c(-c3ccc(C(F)(F)F)n(C)c3=O)c(F)cc(Cl)c2o1 (stereo not shown) [Compound 4-36] |  |  |  | 5 | 5 | 5 | 5 | 2 |  |  |  |  |  |  | 5 | 5 | 5 | 5 | 5 | 5 | Herbicidal effects Am (slender amaranth (Am) [12]; [25]): 5; Herbicidal effects Ci (rice flatsedge (Ci) [13]; [25]): 5; Herbicidal effects Di (Diaitaria ciliaris (Di); [25]): 5; Herbicidal effects Ch [14, 25]: 5; Herbicidal effects Po (pale smartweed (Po) [15]; [25]): 5; Herbicidal effects Ec (barnyardgrass (Ec) [16]; [25]): 5 |
| CCC(OC)c1cc2c(-c3ccc(C(F)(F)F)n(C)c3=O)c(F)cc(Cl)c2o1 (stereo not shown) [Compound 4-39] |  |  |  | 5 | 5 | 5 | 5 | 2 |  |  |  |  |  |  |  |  |  |  |  |  |  |
| Cn1c(C(F)(F)F)ccc(-c2cc(C=O)c(Cl)cc2F)c1=O [Compound No. 1-81, 5-[1--methyl-6-trifluoromethyl-2(1H)-pyridon-3-yl]-2-chloro-4-fluorobenzaldehyde] | 5 | 5 | 5 |  |  |  |  |  | 5 | 5 | 5 | 5 | 5 | 5 |  |  |  |  |  |  | Herbicidal effects Am (slender amaranth (Am) [6]; [22]): 5; Herbicidal effects Ci (rice flatsedge (Ci) [7]; [22]): 5; Herbicidal effects Ch [8, 22]: 5; Herbicidal effects Po (pale smartweed (Po) [9]; [22]): 5; Herbicidal effects Ec (barnyardgrass (Ec) [10]; [22]): 5; Herbicidal effects Di (Digitaria ciliaris (Di); [22]): 5 |
| Cn1c(C(F)(F)F)ccc(-c2cc(C(=O)O)c(Cl)cc2F)c1=O [Compound No. 1-141, 5-(1-methyl-6-trifluoromethyl-2(1H)-pyridon-3-yl)-2-chloro-4-fluorobenzoic acid] | 5 | 5 | 5 |  |  |  |  |  | 5 | 5 | 5 | 5 | 5 | 5 |  |  |  |  |  |  | Herbicidal effects Am (slender amaranth (Am) [6]; [22]): 5; Herbicidal effects Ci (rice flatsedge (Ci) [7]; [22]): 5; Herbicidal effects Ch [8, 22]: 5; Herbicidal effects Po (pale smartweed (Po) [9]; [22]): 5; Herbicidal effects Ec (barnyardgrass (Ec) [10]; [22]): 4; Herbicidal effects Di (Digitaria ciliaris (Di); [22]): 5 |
